Assay results from US11524966B1 (Valo Early Discovery, Inc., priority 2017, dated 2022).

Molecular target: T1, USP28 (USP28-5(1-1077)-TEV-6*His; LifeSensors) (Homo sapiens, UniProt Q96RU2)
T1 construct: construct USP28 (USP28-5(1-1077)-TEV-6*His; LifeSensors); TEV cleavage site (C); 6xHis (C); purchased LifeSensors
T1 sequence (Q96RU2 1-1077): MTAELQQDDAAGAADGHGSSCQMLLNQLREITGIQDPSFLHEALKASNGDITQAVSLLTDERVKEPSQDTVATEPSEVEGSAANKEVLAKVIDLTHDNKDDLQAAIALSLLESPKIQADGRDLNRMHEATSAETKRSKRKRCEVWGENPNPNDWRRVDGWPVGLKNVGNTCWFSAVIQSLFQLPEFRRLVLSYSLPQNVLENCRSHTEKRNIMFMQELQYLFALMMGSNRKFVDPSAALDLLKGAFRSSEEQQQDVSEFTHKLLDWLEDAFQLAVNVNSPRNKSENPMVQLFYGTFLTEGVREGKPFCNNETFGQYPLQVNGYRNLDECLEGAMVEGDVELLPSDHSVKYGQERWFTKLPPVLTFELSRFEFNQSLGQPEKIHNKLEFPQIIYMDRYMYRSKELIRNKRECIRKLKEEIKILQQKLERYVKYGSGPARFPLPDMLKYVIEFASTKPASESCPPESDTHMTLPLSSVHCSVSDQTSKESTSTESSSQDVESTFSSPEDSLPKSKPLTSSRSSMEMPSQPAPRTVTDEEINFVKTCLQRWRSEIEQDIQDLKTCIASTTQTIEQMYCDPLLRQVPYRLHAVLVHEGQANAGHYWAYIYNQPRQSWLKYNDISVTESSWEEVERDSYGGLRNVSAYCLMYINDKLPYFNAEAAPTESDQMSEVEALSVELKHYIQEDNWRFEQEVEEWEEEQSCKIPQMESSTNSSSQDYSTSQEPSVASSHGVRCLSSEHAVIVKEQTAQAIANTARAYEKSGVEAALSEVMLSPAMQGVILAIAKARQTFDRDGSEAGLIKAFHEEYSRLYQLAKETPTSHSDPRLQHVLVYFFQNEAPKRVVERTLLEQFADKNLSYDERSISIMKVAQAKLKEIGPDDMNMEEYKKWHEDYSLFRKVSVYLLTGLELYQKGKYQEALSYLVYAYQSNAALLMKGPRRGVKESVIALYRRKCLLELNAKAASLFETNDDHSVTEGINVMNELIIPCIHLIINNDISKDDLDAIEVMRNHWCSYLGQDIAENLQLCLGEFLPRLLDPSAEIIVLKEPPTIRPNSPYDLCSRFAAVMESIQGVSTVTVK
Assay: Ubiquitin-Rhodamine 110 Assay for USP28 Activity, Example A-1(b)
Type: biochemical
Details: Ubiquitin-Rhodamine 110 assay, Example A-1(b)
Method in brief: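 Single-point screening used 10 μM compound with 90 min room-temperature incubation; follow-up dose-responses (25 μM top, 3-fold) used 75 pM USP28 1-1077 construct, 30 min compound preincubation, 25 nM Ub-Rh110, 20 min reaction, citric acid quench. Rh110 fluorescence normalised to no-enzyme and DMSO controls; IC50 from 4-parameter logistic fit.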

Row | SMILES | USP28 A-1(b) IC50 range
1 | Cc1ccc2c(N)c(C(=O)N[C@H]3COc4cc(N5C[C@H](N)[C@@H](F)C5)ccc4C3)sc2n1 [Example 3-7, 3-amino-N-((R)-7-((3S,4S)-3-amino-4-fluoropyrrolidin-1-yl)chroman-3-yl)-6-methylthieno[2,3-b]pyridine-2-carboxamide] | ++ (0.2-2 μM)
2 | Cc1ccc2c(N)c(C(=O)N[C@H]3COc4cc(N5C[C@@H](N)[C@H](F)C5)ccc4C3)sc2n1 [Example 3-8, 3-amino-N-((R)-7-((3R,4R)-3-amino-4-fluoropyrrolidin-1-yl)chroman-3-yl)-6-methylthieno[2,3-b]pyridine-2-carboxamide] | ++ (0.2-2 μM)
3 | Cc1ccc2c(N)c(C(=O)N[C@H]3COc4cc(N5CCN[C@@H](C(F)(F)F)C5)ccc4C3)sc2n1 [Example 3-11, 3-amino-6-methyl-N-((R)-7-((R)-3-(trifluoromethyl)piperazin-1-yl)chroman-3-yl)thieno[2,3-b]pyridine-2-carboxamide] | ++ (0.2-2 μM)
4 | Cc1ccc2c(N)c(C(=O)N[C@H]3COc4cc(N5CCN[C@H](C(F)(F)F)C5)ccc4C3)sc2n1 [Example 3-12, 3-amino-6-methyl-N-((R)-7-((S)-3-(trifluoromethyl)piperazin-1-yl)chroman-3-yl)thieno[2,3-b]pyridine-2-carboxamide] | ++ (0.2-2 μM)
5 | Cc1ccc2c(N)c(C(=O)N[C@H]3COc4cc(N5CC[C@]6(CCCNC6)C5)ccc4C3)sc2n1 [Example 3-13, N-((R)-7-((S)-2,7-diazaspiro[4.5]decan-2-yl)chroman-3-yl)-3-amino-6-methylthieno[2,3-b]pyridine-2-carboxamide] | +++ (0.05-0.2 μM)
6 | Cc1ccc2c(N)c(C(=O)N[C@H]3COc4cc(N5CC[C@@]6(CCCNC6)C5)ccc4C3)sc2n1 [Example 3-14, N-((R)-7-((R)-2,7-diazaspiro[4.5]decan-2-yl)chroman-3-yl)-3-amino-6-methylthieno[2,3-b]pyridine-2-carboxamide] | +++ (0.05-0.2 μM)
7 | Cc1ccc2c(N)c(C(=O)N[C@H]3COc4cc(N5CCC(F)(F)CC5)ccc4C3)sc2n1 [Example 5-1, (R)-3-amino-N-(7-(4,4-difluoropiperidin-1-yl)chroman-3-yl)-6-methylthieno[2,3-b]pyridine-2-carboxamide] | ++++ (0.001-0.05 μM)
8 | Cc1ccc2c(N)c(C(=O)N[C@H]3COc4cc(N5CCS(=O)(=O)CC5)ccc4C3)sc2n1 [Example 5-2, (R)-3-amino-N-(7-(1,1-dioxidothiomorpholino)chroman-3-yl)-6-methylthieno[2,3-b]pyridine-2-carboxamide] | +++ (0.05-0.2 μM)
9 | Cc1ccc2c(N)c(C(=O)N[C@H]3COc4cc(N5CC(O)(C(F)(F)F)C5)ccc4C3)sc2n1 [Example 5-3, (R)-3-amino-N-(7-(3-hydroxy-3-(trifluoromethyl)azetidin-1-yl)chroman-3-yl)-6-methylthieno[2,3-b]pyridine-2-carboxamide] | +++ (0.05-0.2 μM)
10 | Cc1ccc2c(N)c(C(=O)N[C@H]3COc4cc(N5CC6COCC(C5)C6(F)F)ccc4C3)sc2n1 [Example 5-4, 3-amino-N-((3R)-7-(9,9-difluoro-3-oxa-7-azabicyclo[3.3.1]nonan-7-yl)chroman-3-yl)-6-methylthieno[2,3-b]pyridine-2-carboxamide] | +++ (0.05-0.2 μM)
11 | Cc1ccc2c(N)c(C(=O)N[C@H]3COc4cc(N5CCC(C(=O)O)CC5)ccc4C3)sc2n1 [Example 6-1, (R)-1-(3-(3-Amino-6-methylthieno[2,3-b]pyridine-2-carboxamido)chroman-7-yl)piperidine-4-carboxylic Acid] | ++ (0.2-2 μM)
12 | Cc1ccc2c(N)c(C(=O)N[C@H]3COc4cc(N5CC[C@@H](C(=O)O)C5)ccc4C3)sc2n1 [Example 6-2, (R)-1-((R)-3-(3-amino-6-methylthieno[2,3-b]pyridine-2-carboxamido)chroman-7-yl)pyrrolidine-3-carboxylic acid] | ++ (0.2-2 μM)
13 | Cc1ccc2c(N)c(C(=O)N[C@H]3COc4cc(N5CC[C@H](C(=O)O)C5)ccc4C3)sc2n1 [Example 6-3, (S)-1-((R)-3-(3-amino-6-methylthieno[2,3-b]pyridine-2-carboxamido)chroman-7-yl)pyrrolidine-3-carboxylic acid] | ++ (0.2-2 μM)
14 | Cc1cnc2c(N)c(C(=O)N[C@H]3CCc4cc(N5CC(C(=O)O)C5)ccc4C3)sc2n1 [Example 6-4, (S)-1-(6-(7-amino-3-methylthieno[2,3-b]pyrazine-6-carboxamido)-5,6,7,8-tetrahydronaphthalen-2-yl)azetidine-3-carboxylic acid] | + (>2 μM)
15 | Cc1ccc2c(N)c(C(=O)N[C@H]3COc4cc(N5CCC(O)CC5)ccc4C3)sc2n1 [Example 7-1, (R)-3-amino-N-(7-(4-hydroxypiperidin-1-yl)chroman-3-yl)-6-methylthieno[2,3-b]pyridine-2-carboxamide] | +++ (0.05-0.2 μM)
16 | COC[C@@H]1CN(c2ccc3c(n2)OC[C@H](NC(=O)c2sc4nc(C)cc(C)c4c2N)C3)C[C@@H]1N [Example 348, 3-amino-N-[(3R)-7-[(3R,4R)-3-amino-4-(methoxymethyl)pyrrolidin-1-yl]-2H,3H,4H-pyrano[2,3-b]pyridin-3-yl]-4,6-dimethylthieno[2,3-b]pyridine-2-carboxamide] | + (>2 μM)
17 | Cc1ccc2c(N)c(C(=O)N[C@H]3CCc4nc(N5C[C@@H](N)[C@H](C(F)(F)F)C5)ccc4C3)sc2n1 [Example 364, 3-amino-N-[(6S)-2-[(3S,4R)-3-amino-4-(trifluoromethyl)pyrrolidin-1-yl]-5,6,7,8-tetrahydroquinolin-6-yl]-6-methylthieno[2,3-b]pyridine-2-carboxamide] | + (>2 μM)
18 | Cc1cnc2c(N)c(C(=O)N[C@H]3CCc4cc(N5CC6CNCC(C5)O6)ccc4C3)sc2n1 [Example 448, N-((2S)-6-(9-oxa-3,7-diazabicyclo[3.3.1]nonan-3-yl)-1,2,3,4-tetrahydronaphthalen-2-yl)-7-amino-3-methylthieno[2,3-b]pyrazine-6-carboxamide] | ++ (0.2-2 μM)
19 | Cc1cnc2c(N)c(C(=O)N[C@@H]3CCc4cc(N5CC6CNCC(C5)O6)ccc4C3)sc2n1 [Example 450, N-((2R)-6-(9-oxa-3,7-diazabicyclo[3.3.1]nonan-3-yl)-1,2,3,4-tetrahydronaphthalen-2-yl)-7-amino-3-methylthieno[2,3-b]pyrazine-6-carboxamide] | + (>2 μM)
20 | Cc1ccc2c(N)c(C(=O)N[C@@H]3CCc4cc(N5CC6CNCC(C5)O6)ccc4C3)sc2n1 [Example 451, N-((2R)-6-(9-oxa-3,7-diazabicyclo[3.3.1]nonan-3-yl)-1,2,3,4-tetrahydronaphthalen-2-yl)-3-amino-6-methylthieno[2,3-b]pyridine-2-carboxamide] | ++ (0.2-2 μM)
21 | Cc1cnc2c(N)c(C(=O)N[C@@H]3CCc4cc(N5CCCNCC5)ccc4C3)sc2n1 [Example 452, (R)-N-(6-(1,4-diazepan-1-yl)-1,2,3,4-tetrahydronaphthalen-2-yl)-7-amino-3-methylthieno[2,3-b]pyrazine-6-carboxamide] | + (>2 μM)
22 | Cc1cnc2c(N)c(C(=O)N[C@H]3CCc4cc(N5CCCNCC5)ccc4C3)sc2n1 [Example 455, (S)-N-(6-(1,4-diazepan-1-yl)-1,2,3,4-tetrahydronaphthalen-2-yl)-7-amino-3-methylthieno[2,3-b]pyrazine-6-carboxamide] | ++ (0.2-2 μM)
23 | Cc1cnc2c(N)c(C(=O)N[C@H]3CCc4cc(N5CC6COCC(C5)N6)ccc4C3)sc2n1 [Example 456, N-((2S)-6-(3-oxa-7,9-diazabicyclo[3.3.1]nonan-7-yl)-1,2,3,4-tetrahydronaphthalen-2-yl)-7-amino-3-methylthieno[2,3-b]pyrazine-6-carboxamide] | ++ (0.2-2 μM)
24 | CC(=O)N1CCCc2cc(C(=O)N[C@H]3COc4cc(N5CCNCC5)ccc4C3)ccc21 [Example 459, (R)-1-acetyl-N-(7-(piperazin-1-yl)chroman-3-yl)-1,2,3,4-tetrahydroquinoline-6-carboxamide] | + (>2 μM)
